Measurements from article PMC8121435, “Cork-in-bottle mechanism of inhibitor binding to mammalian complex I” (Science Advances, 2021).

Key:
mouse complex I = molecular target: T1, mouse complex I (Mus musculus, UniProt P03888+Q91WD5+Q9DC70); assay: NADH:decylubiquinone oxidoreduction by purified mouse complex I; format: biochemical
T1 construct: from tissue; host or cells: mouse (C57BL/6) heart mitochondria
Method: (§1) All catalytic activity assays were conducted at 32°C in 96-well plates using a Molecular Devices Spectramax 384 plus plate reader. Catalysis was initiated by addition of 200 μM NADH and monitored at 340 and 380 nm (ε340–380 = 4.81 mM^−1 cm^−1). Linear rates were measured for all assays, inhibitors were added from dimethyl sulfoxide stock solutions as required, and inhibitor-insensitive rates (using either 1 μM piericidin A or 1.4 μM IACS-2858) were subtracted from each measured rate. Membrane samples were prepared as described previously ([17], [20], [59], [60]), diluted to 20 μg ml^−1 in 10 mM tris-SO4 (pH 7.5) and 250 mM sucrose, and supplemented with 3 μM horse heart cytochrome c (except for P. denitrificans, for which the activity is unaffected by the addition). Mouse, bovine, and yeast (Y. lipolytica) complex I were purified as described previously ([17], [20], [59]); diluted to 0.5 nM in 20 mM tris-HCl (pH 7.5), 0.15% asolectin, and 0.15% CHAPS; and assayed using either 200 μM dQ or 200 μM ubiquinone-1 (Sigma-Aldrich). Complex I was purified from P. denitrificans strain Pd1222 ([61]) and provided by O. D. Jarman (MRC Mitochondrial Biology Unit, University of Cambridge); it was assayed likewise but in 10 mM MES-HCl (pH 6.5), 25 mM NaCl, and 2 mM CaCl2. Bovine SMPs were prepared as described previously ([61]) and diluted to 20 μg ml^−1 in 10 mM tris-SO4 (pH 7.5) and 250 mM sucrose for FET and RET assays. The RET assay was initiated using 1 mM NAD^+, 1 mM ATP, 10 mM succinate, 1 mM cyanide, and 2 mM MgSO4, in the absence of NADH. AOX from Trypanosoma brucei brucei was prepared as described previously ([23]). Complex I proteoliposomes were assayed using 10 mM Mops-KOH (pH 7.5), 50 mM KCl, and AOX (10 μg ml^−1).

bovine complex I = molecular target: T2, bovine complex I (Bos taurus, UniProt P03887+P17694+P42026); assay: NADH:decylubiquinone oxidoreduction by purified bovine complex I; format: biochemical; conditions: purified B. taurus complex I, dQ; ± SE
T2 construct: Complex I from bovine heart were prepared; from tissue; host or cells: bovine heart mitochondria
Method: as §1, with “Bovine SMPs were prepared as described previously ([61]) and diluted to 20 μg ml^−1 in 10 mM tris-SO4 (pH 7.5) and 250 mM sucrose for FET and RET assays. The RET assay was initiated using 1 mM NAD^+, 1 mM ATP, 10 mM succinate, 1 mM cyanide, and 2 mM MgSO4, in the absence of NADH. AOX from Trypanosoma brucei brucei was prepared as described previously ([23]). Complex I proteoliposomes were assayed using 10 mM Mops-KOH (pH 7.5), 50 mM KCl, and AOX (10 μg ml^−1).” left out

[1] = molecular target: T3, yeast (Y. lipolytica) complex I (Yarrowia lipolytica, UniProt Q9B6E8+Q9UUT7+Q9UUU1); assay: NADH:decylubiquinone oxidoreduction by purified Y. lipolytica complex I; format: biochemical
T3 sequence (Q9B6E8 1-341): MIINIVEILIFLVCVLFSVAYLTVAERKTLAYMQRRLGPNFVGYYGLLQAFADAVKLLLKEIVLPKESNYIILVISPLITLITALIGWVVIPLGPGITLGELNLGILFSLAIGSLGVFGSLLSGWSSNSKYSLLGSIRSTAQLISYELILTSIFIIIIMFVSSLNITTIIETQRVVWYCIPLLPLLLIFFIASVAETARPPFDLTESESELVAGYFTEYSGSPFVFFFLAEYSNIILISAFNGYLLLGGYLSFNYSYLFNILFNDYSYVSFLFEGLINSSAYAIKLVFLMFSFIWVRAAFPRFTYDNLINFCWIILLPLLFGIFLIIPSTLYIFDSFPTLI
T3 sequence (Q9UUU1 22-466): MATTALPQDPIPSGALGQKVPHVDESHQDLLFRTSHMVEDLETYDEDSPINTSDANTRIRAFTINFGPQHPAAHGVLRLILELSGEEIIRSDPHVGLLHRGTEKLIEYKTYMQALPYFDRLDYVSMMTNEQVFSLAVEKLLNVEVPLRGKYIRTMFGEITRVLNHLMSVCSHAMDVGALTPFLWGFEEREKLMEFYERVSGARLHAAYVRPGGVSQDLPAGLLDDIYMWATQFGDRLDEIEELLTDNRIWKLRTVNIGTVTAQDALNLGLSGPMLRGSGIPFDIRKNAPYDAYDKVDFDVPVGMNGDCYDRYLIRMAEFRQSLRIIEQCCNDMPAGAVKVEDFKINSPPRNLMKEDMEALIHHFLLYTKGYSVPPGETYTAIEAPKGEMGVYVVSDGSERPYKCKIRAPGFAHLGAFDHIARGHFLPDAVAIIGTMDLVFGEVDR
T3 sequence (Q9UUT7 28-210): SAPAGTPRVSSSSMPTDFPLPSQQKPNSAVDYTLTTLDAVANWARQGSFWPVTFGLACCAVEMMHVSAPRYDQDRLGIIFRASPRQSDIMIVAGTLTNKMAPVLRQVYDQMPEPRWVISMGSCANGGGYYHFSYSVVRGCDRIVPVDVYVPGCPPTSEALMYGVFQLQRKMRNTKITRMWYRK
Method: as §1, with “Bovine SMPs were prepared as described previously ([61]) and diluted to 20 μg ml^−1 in 10 mM tris-SO4 (pH 7.5) and 250 mM sucrose for FET and RET assays. The RET assay was initiated using 1 mM NAD^+, 1 mM ATP, 10 mM succinate, 1 mM cyanide, and 2 mM MgSO4, in the absence of NADH. AOX from Trypanosoma brucei brucei was prepared as described previously ([23]). Complex I proteoliposomes were assayed using 10 mM Mops-KOH (pH 7.5), 50 mM KCl, and AOX (10 μg ml^−1).” left out

[2] = molecular target: T4, P. denitrificans complex I (Paracoccus denitrificans, UniProt P29916+P29918+P29920); assay: NADH:decylubiquinone oxidoreduction by purified P. denitrificans complex I; format: biochemical; conditions: dQ, pH 6.5
T4 construct: Complex I was purified from P. denitrificans strain Pd1222; endogenous in cells; host or cells: P. denitrificans strain Pd1222
Method: as §1, with “Bovine SMPs were prepared as described previously ([61]) and diluted to 20 μg ml^−1 in 10 mM tris-SO4 (pH 7.5) and 250 mM sucrose for FET and RET assays. The RET assay was initiated using 1 mM NAD^+, 1 mM ATP, 10 mM succinate, 1 mM cyanide, and 2 mM MgSO4, in the absence of NADH. AOX from Trypanosoma brucei brucei was prepared as described previously ([23]). Complex I proteoliposomes were assayed using 10 mM Mops-KOH (pH 7.5), 50 mM KCl, and AOX (10 μg ml^−1).” left out

[3] = molecular target: T5, complex I in mitochondrial membranes (Mus musculus, UniProt P03888+Q91WD5+Q9DC70); assay: NADH oxidation in mouse mitochondrial membranes; format: biochemical; conditions: M. musculus membranes 20 μg ml−1; ± SE
T5 construct: from tissue; host or cells: mouse (C57BL/6) heart mitochondria
Method: as §1, with “Bovine SMPs were prepared as described previously ([61]) and diluted to 20 μg ml^−1 in 10 mM tris-SO4 (pH 7.5) and 250 mM sucrose for FET and RET assays. The RET assay was initiated using 1 mM NAD^+, 1 mM ATP, 10 mM succinate, 1 mM cyanide, and 2 mM MgSO4, in the absence of NADH. AOX from Trypanosoma brucei brucei was prepared as described previously ([23]). Complex I proteoliposomes were assayed using 10 mM Mops-KOH (pH 7.5), 50 mM KCl, and AOX (10 μg ml^−1).” left out

[4] = molecular target: T6, complex I in mitochondrial membranes (Bos taurus, UniProt P03887+P17694+P42026); assay: NADH oxidation in bovine mitochondrial membranes; format: biochemical; conditions: B. taurus membranes 20 μg ml−1; ± SE
T6 construct: Complex I from bovine heart were prepared; from tissue; host or cells: bovine heart mitochondria
Method: as §1, with “Bovine SMPs were prepared as described previously ([61]) and diluted to 20 μg ml^−1 in 10 mM tris-SO4 (pH 7.5) and 250 mM sucrose for FET and RET assays. The RET assay was initiated using 1 mM NAD^+, 1 mM ATP, 10 mM succinate, 1 mM cyanide, and 2 mM MgSO4, in the absence of NADH. AOX from Trypanosoma brucei brucei was prepared as described previously ([23]). Complex I proteoliposomes were assayed using 10 mM Mops-KOH (pH 7.5), 50 mM KCl, and AOX (10 μg ml^−1).” left out

[5] = molecular target: T7, complex I in mitochondrial membranes (Yarrowia lipolytica, UniProt Q9B6E8+Q9UUT7+Q9UUU1); assay: NADH oxidation in Y. lipolytica mitochondrial membranes; format: biochemical
T7 sequence (Q9B6E8 1-341): T3 sequence (Q9B6E8 1-341)
T7 sequence (Q9UUU1 22-466): T3 sequence (Q9UUU1 22-466)
T7 sequence (Q9UUT7 28-210): T3 sequence (Q9UUT7 28-210)
Method: as §1, with “Bovine SMPs were prepared as described previously ([61]) and diluted to 20 μg ml^−1 in 10 mM tris-SO4 (pH 7.5) and 250 mM sucrose for FET and RET assays. The RET assay was initiated using 1 mM NAD^+, 1 mM ATP, 10 mM succinate, 1 mM cyanide, and 2 mM MgSO4, in the absence of NADH. AOX from Trypanosoma brucei brucei was prepared as described previously ([23]). Complex I proteoliposomes were assayed using 10 mM Mops-KOH (pH 7.5), 50 mM KCl, and AOX (10 μg ml^−1).” left out

[6] = molecular target: T8, complex I in bacterial membranes (Paracoccus denitrificans, UniProt P29916+P29918+P29920); assay: NADH oxidation in P. denitrificans bacterial membranes; format: biochemical; conditions: P. denitrificans membranes 20 μg ml−1
T8 construct: Complex I was purified from P. denitrificans strain Pd1222; endogenous in cells; host or cells: P. denitrificans strain Pd1222
Method: as §1, with “Bovine SMPs were prepared as described previously ([61]) and diluted to 20 μg ml^−1 in 10 mM tris-SO4 (pH 7.5) and 250 mM sucrose for FET and RET assays. The RET assay was initiated using 1 mM NAD^+, 1 mM ATP, 10 mM succinate, 1 mM cyanide, and 2 mM MgSO4, in the absence of NADH. AOX from Trypanosoma brucei brucei was prepared as described previously ([23]). Complex I proteoliposomes were assayed using 10 mM Mops-KOH (pH 7.5), 50 mM KCl, and AOX (10 μg ml^−1).” left out

complex I in bovine SMPs [7] = molecular target: T9, complex I in bovine SMPs (Bos taurus, UniProt P03887+P17694+P42026); assay: Forward electron transport (NADH oxidation) in bovine heart submitochondrial particles; format: biochemical; conditions: NADH oxidation rate, ± SE
T9 construct: Complex I from bovine heart were prepared; from tissue; host or cells: bovine heart mitochondria
Method: as §1, with “Bovine SMPs were prepared as described previously ([61]) and diluted to 20 μg ml^−1 in 10 mM tris-SO4 (pH 7.5) and 250 mM sucrose for FET and RET assays. The RET assay was initiated using 1 mM NAD^+, 1 mM ATP, 10 mM succinate, 1 mM cyanide, and 2 mM MgSO4, in the absence of NADH. AOX from Trypanosoma brucei brucei was prepared as described previously ([23]). Complex I proteoliposomes were assayed using 10 mM Mops-KOH (pH 7.5), 50 mM KCl, and AOX (10 μg ml^−1).” left out

complex I in bovine SMPs [8] = molecular target: T9, complex I in bovine SMPs; assay: Reverse electron transport (succinate oxidation-driven NAD+ reduction) in bovine heart submitochondrial particles; format: biochemical
Method: as §1

[9] = tested on: human cell line models and representative cell lines from mammalian species; parameters: method as in PMID 29892070; conditions: mouse, monkey, dog and rat cell lines; cited from earlier work
H292 cells = tested on: H292 cells; parameters: method as in PMID 29892070; conditions: Leu55 ND1 mutation to Phe in H292 cells; cited from earlier work
human DHODH = tested on: human DHODH; parameters: method as in PMID 15044733, PMID 9313772; conditions: His-to-Ala mutation of the π-stacking partner; cited from earlier work

Row | Structure (SMILES) | higher IC50 value than IACS-2858 (mouse complex I) | IC50 (mouse complex I; purified mouse complex I ~0.5 nM, 200 μM dQ, 200 μM NADH, 32°C, Hill slope constrained to −1, ± SE) | IC50 (bovine complex I) | IC50 [1] | IC50 [2] | IC50 [3] | IC50 [4] | IC50 [5] | IC50 [6] | IC50 (complex I in bovine SMPs [7]) | IC50 (complex I in bovine SMPs [8]; bovine SMPs, succinate oxidation-driven NAD+ reduction rate, ± SE) | inhibition of RET favoured over FET (complex I in bovine SMPs [8]; bovine heart SMPs, RET versus FET) | variation in IC50 across cell lines [9] | loss of sensitivity (H292 cells) | reduction of sensitivity (human DHODH)
1 | Cc1nc(-c2nc(-c3ccc(OC(F)(F)F)cc3)no2)nn1Cc1cccc(N2CCC(S(C)(=O)=O)CC2)c1 [IACS-010759] | 17 fold | 47.9 nM | 739 ± 65 nM | 6.3 ± 0.8 µM | ~22 mM | 6.9 ± 0.4 nM | 113 ± 4 nM | ~170 µM | ~1.6 mM | 325 ± 25 nM | 12.3 ± 0.6 nM | more than 25 fold | up to 230 fold | up to 70 fold | 
2 | Cc1c(-c2ccc(-c3ccccc3F)cc2)nc2ccc(F)cc2c1C(=O)O [brequinar] |  |  |  |  |  |  |  |  |  |  |  |  |  |  | more than 100 fold
